Experimental data taken from PMC13040083, “Single-molecule dynamics reveal ATP binding alone powers substrate translocation by an ABC transporter” (Nature Communications, 2026).

How the values were obtained:
[1] = test system: TmrA^EQB (TmrA^E523QB); test: Single-molecule (smFRET) peptide translocation by slow-turnover TmrA^EQB in liposomes; conditions: 10 µM valinomycin, K+ buffer, Mg-ATP 3 mM, peptide 200 µM, 45 °C 5 min; and control at 30 °C
Experimental: For single-molecule experiments, a protein-to-lipid ratio (w/w) of 1:10,000 and an OppA-to-liposome ratio of 0.2 molecules per liposome were used. For ensemble transport assays, a protein-to-lipid ratio (w/w) of 1:20 was applied. Extruded LUVs were destabilized by incubation with 0.3% (v/v) Triton X-100 (TX-100) for 30 min. TmrAB and OppA were then added to the detergent-destabilized liposomes and incubated for 30 min at 8 °C under gentle rotation. Detergent removal was performed gradually using sequential additions of polystyrene Bio-Beads SM-2 (Bio-Rad): two incubations at 40 mg/mL (1 h and overnight), followed by two incubations at 80 mg/mL (1 h each). […]
Single-molecule FRET experiments were conducted using a flow chamber system to immobilize liposomes and transporters in an uptake-competent orientation. […] Laser powers were set to 0.8 mW/cm^2 (532 nm excitation) and 0.9 mW/cm^2 (640 nm excitation), with data recorded in 1-min intervals.
Single-molecule FRET (smFRET) measurements were performed using ALEX, allowing the assignment of detected photons based on both excitation and emission wavelength. […] From these signals, FRET efficiency (E) and stoichiometry (S) were calculated and FRET traces extracted using NanoImager software (ONI Nanoimager Development Build) and analyzed with deepFRET[56]. […] Dynamic smFRET traces were further analyzed via HMM by deepFRET. […]

[2] = test system: TmrAB^WT; test: LC-MS-based peptide transport assay; type: biochemical, Thermus thermophilus; conditions: Mg-ATP 3 mM, ATP regeneration system, 45 °C 45 min, n = 3 technical replicates
Experimental: For single-molecule experiments, a protein-to-lipid ratio (w/w) of 1:10,000 and an OppA-to-liposome ratio of 0.2 molecules per liposome were used. For ensemble transport assays, a protein-to-lipid ratio (w/w) of 1:20 was applied. Extruded LUVs were destabilized by incubation with 0.3% (v/v) Triton X-100 (TX-100) for 30 min. TmrAB and OppA were then added to the detergent-destabilized liposomes and incubated for 30 min at 8 °C under gentle rotation. Detergent removal was performed gradually using sequential additions of polystyrene Bio-Beads SM-2 (Bio-Rad): two incubations at 40 mg/mL (1 h and overnight), followed by two incubations at 80 mg/mL (1 h each). Finally, proteoliposomes were harvested by ultracentrifugation (100,000 × g, 30 min, 4 °C) and resuspended in the appropriate buffer.
Reactions were stopped with ice-cold liposome buffer containing 10 mM EDTA. Samples were ultracentrifuged (450,000 × g, 30 min, 4 °C), and pellets were resuspended in 200 µL of 100 mM Na2CO3 (pH 11.5), followed by a second ultracentrifugation under the same conditions. […] A final ultracentrifugation (450,000 × g, 1.5 h, 4 °C) was performed before LC-MS analysis using a Waters BioAccord system (UNIFY 3.1.0). […] Quantification was based on total ion chromatogram peak areas at the peptide-specific retention times.

[3] = test system: TmrAB^WT; test: Filter plate-based peptide transport assay; type: biochemical, Thermus thermophilus; conditions: C4F 10 µM
[4] = test system: TmrAB^WT; test: Single-liposome transport monitored by flow cytometry; type: biochemical, Thermus thermophilus; conditions: flow cytometry single-liposome assay

With CC(C)[C@@H]1NC(=O)[C@H](C)OC(=O)[C@@H](C(C)C)NC(=O)[C@@H](C(C)C)OC(=O)[C@H](C(C)C)NC(=O)[C@H](C)OC(=O)[C@@H](C(C)C)NC(=O)[C@@H](C(C)C)OC(=O)[C@H](C(C)C)NC(=O)[C@H](C)OC(=O)[C@@H](C(C)C)NC(=O)[C@@H](C(C)C)OC1=O [valinomycin] the “effect of dissipating membrane potential on translocation” value [1] was “excluded effects from a transmembrane potential”.

For GIINTLEEL [9mer peptide], the “ATP-dependent transport, in words” value [2] was “signiﬁcant ATP-dependent transport”.

With “RRYC(Fluorescein)KSTEL [C4F, RRYC^FLKSTEL, fluorescein-labeled peptide RRYC^FLKSTEL]” the “peptide transport, in words” value ([3]; ATP-EDTA 3 mM) was “no transport above ADP-EDTA (3 mM) background”, the “peptide transport, in words” value ([3]; Mg-ATP 3 mM) was “robust transport” and the “ATP-dependent transport, in words” value [2] was “signiﬁcant ATP-dependent transport”.

B1: Nb9F10: conformation-independent nanobody tethered via PEG11-biotin (antibody, V domains shown)
VH: QLQLVESGGGLVQPGDSLRLSCAVSGSALDYNAIGWFRQAPGKEREGVACISKITGNTAYADCVKGRFTISRDNAKNTVHLQMNSLKPEDTAVYYCATVTAVLLPGRCVPGKYWGQGTPVTVSS
With B1 the “effect of nanobody binding on TmrAB transport activity” value [4] was “did not alter transport activity”.
